In general, IC50 refers to the concentration that inhibits the measured activity by half.

Activity calls are given as the source filed them. The rule behind the calls is not given here.

Series [1] relates to C6. Kind of series: Cytotoxicity against rat C6 cells incubated for 48 hrs by MTT assay. The class given is functional, cell-based. (In general: Formazan colour is commonly taken as a measure of viable cells.)
Series [2] is described as follows: Cytotoxicity against human U138MG cells incubated for 48 hrs by MTT assay. The class given is functional, cell-based, U138-MG.
The test system of series [3] is C6. Briefly: Induction of apoptotic cell death in rat C6 cells at 50 uM incubated for 24 hrs by Annexin V/PI staining based flow cytometry. The class given is functional.
The test system of a further series is Hippocampus. Kind of series: Toxicity in Wistar rat organotypic hippocampal cultures at 100 uM incubated for 48 hrs by propidium iodide incorporation assay. The class given is tissue-based.
Series [4] concerns C6. Kind of series: Induction of apoptotic cell death in rat C6 cells at 25 uM incubated for 24 hrs by Annexin V/PI staining based flow cytometry. The class given is functional. In general terms: A flow cytometer gives signals particle by particle.
Series [5] concerns C6. Kind of series: Induction of early apoptotic cell death in rat C6 cells at 100 uM incubated for 24 hrs by Annexin V/PI staining based flow cytometry. The class given is functional.
Where [6] appears, read: Rattus norvegicus, C6, 48 h, read-out: IC50.
The mark [7] stands for this setting: Homo sapiens, U138-MG, 48 h, read-out: IC50.

With `O=c1ccc2ccccc2o1` [COUMARIN], the concentration for half-maximal inhibition (IC50) entry (in the series on C6 [1] (c6); in series [2] (u138-mg)) was “Not Active” in each case.

As for `CC(C)(O)C(O)COc1c2c(cc3oc(=O)ccc13)OCO2` (stereo not given), the IC50 turned out to be 76.4 µM in the series with C6 [1] (setting [6]) and 75.6 µM in series [2] (setting [7]).

Regarding `Cn1nnc2c(C(N)=O)ncn2c1=O` [TEMOZOLOMIDE], the IC50 in the series on C6 [1] (setting [6]) came to 34 µM; in series [2] (setting [7]), 26 µM.

Regarding `CC(C)=CCOc1c2c(cc3oc(=O)ccc13)OCO2`, the figures for the IC50 (in the series with C6 [1] (setting [6]); in series [2] (setting [7])) were 77.5 µM and 65.4 µM, respectively.

With `O=c1ccc2cc(O)c(O)cc2o1` [ESCULETIN], the half-inhibitory concentration (IC50) entry (with C6 [1] (c6); in series [2] (u138-mg)) was “Not Active” in each case.

Consider `O=c1ccc2ccc(O)cc2o1` [UMBELLIFERONE], for which the IC50 entry (in the series on C6 [1] (c6); in series [2] (u138-mg)) was “Not Active” in each case.

As for `COc1c2c(cc3oc(=O)ccc13)OCO2`, the outcome with C6 [3] and in the series on C6 [4] was inactive. Moreover, the Activity result in the series on Hippocampus is reported as “Non-toxic”. Moreover, the IC50 in the series with C6 [1] (setting [6]) amounted to 34.6 µM; in series [2] (setting [7]), 31.6 µM. In addition, in the series on C6 [5], the outcome was Active.

With `O=c1ccc2cc(O[C@@H]3O[C@H](CO)[C@@H](O)[C@H](O)[C@H]3O)c(O)cc2o1` [ESCULIN], the IC50 result (in the series on C6 [1] (c6); in series [2] (u138-mg)) was “Not Active” throughout.
